Measurements taken from patent US6458760B1, “Method for treating tissue damaged from ischemia” (Henry Ford Health System, priority 1998, dated 2002).
Non-standard residues stand in square brackets, D forms with d. Residues, ends and D or L forms follow the SMILES beside them. *: point of attachment. Phe(4-NO2) = N[CH](Cc1ccc([N+](=O)[O-])cc1)C(=O)O; Cit = NC(=O)NCCC[CH](N)C(=O)O; Cbz = O=C(OCc1ccccc1)*; CHN2 = [N-]=[N+]=C*; Bn = c1ccc(C*)cc1; tBu = CC(C)(C)*

Tests used:
Cathepsin B = Cathepsin B (Homo sapiens, UniProt P07858); assay: Cathepsin B inactivation rate, fluorimetric progress curves; type: biochemical; settings: second order inactivation rate constant corrected for substrate; pH 5.4, 30° C.
Experimental: (§1) (“Tian, et al.”) the contents of which are incorporated by reference. More specifically, the value of kobs is given by the slope of a plot of ln [P]∞−[p]t versus t (time). The apparent second-order rate contact for inactivation, k2app was calculated as kobs/[I]. The inactivation-rates (kobs) in the presence of substrate and for different inhibitor concentrations for calpain, cathepsin B and cathepsin L are determined according to the method of Tian, et al. However, k2app is corrected for the presence of substrate (s) to give the second order rate constant k^12app, calculated as k^12app=k2app (1+[s]/Km).
Cathepsins B and L were preactivated with […] DTT in 50 mM sodium acetate buffer, pH 5.4, 1 mM EDTA for 2 h at 4° C. and assayed in the same buffer with 0.01% Brij [poly(oxyethylene) glycol dodecyl ether]. […] The inhibitors (0.1-1 μM) and substrate were added to the reaction mixture to incubate for 5 min in a cuvette thermostated at 30° C. Then, approximately 0.4 nM and 0.1 nM final concentration of cathepsin B and cathepsin L, respectively, were used to initiate the reaction. […] The progress curves were analyzed over at least 3 half lives to calculate the rate constants of inactivation in accordance with the procedure described by Crawford, C. Mason, R. W., Wilkström, P., and Shaw, E. in an article entitled “The design of peptidyldiazomethane inhibitors to distinguish between the cysteine proteinases calpain II, cathepsin L and cathepsin B.”, Biochem. J. 1988, 253, 751-758, the contents of which are incorporated by reference. The rates of inactivation of various substrates are tabulated hereinbelow.

Cathepsin L = Cathepsin L (Homo sapiens, UniProt P07711); assay: Cathepsin L inactivation rate, fluorimetric progress curves; type: biochemical; settings: second order inactivation rate constant corrected for substrate; substrate Z-Phe-Arg-AMC; pH 5.4, 30° C.
Experimental: as §1
Cathepsins B and L were preactivated with […] DTT in 50 mM sodium acetate buffer, pH 5.4, 1 mM EDTA for 2 h at 4° C. and assayed in the same buffer with 0.01% Brij [poly(oxyethylene) glycol dodecyl ether]. 5 μM (final concentration) CBZ-Phe-Arg-AMC was used as substrate for both for cathepsins B and L. The inhibitors (0.1-1 μM) and substrate were added to the reaction mixture to incubate for 5 min in a cuvette thermostated at 30° C. Then, approximately 0.4 nM and 0.1 nM final concentration of cathepsin B and cathepsin L, respectively, were used to initiate the reaction. […] The progress curves were analyzed over at least 3 half lives to calculate the rate constants of inactivation in accordance with the procedure described by Crawford, C. Mason, R. W., Wilkström, P., and Shaw, E. in an article entitled “The design of peptidyldiazomethane inhibitors to distinguish between the cysteine proteinases calpain II, cathepsin L and cathepsin B.”, Biochem. J. 1988, 253, 751-758, the contents of which are incorporated by reference. The rates of inactivation of various substrates are tabulated hereinbelow.

Calpain = Calpain inactivation rate, fluorimetric progress curves; type: biochemical; settings: second order inactivation rate constant corrected for substrate; substrate Suc-Leu-Tyr-AMC; pH 7.5, 37° C.
Experimental: as §1
Calpain was assayed fluorimetrically in 1 ml of 50 mM Tris/acetate buffer, pH 7.5, containing 5 mM CaCl2, 2.5 mM DTT(dithiothreitol), 0.1% Triton X-100 at 37° C., using 2.5×10^−4 M Suc-Leu-Tyr-aminomethylcoumarin (AMC) (Novabiochem, Switzerland) as substrate and 50nM (final concentration) of enzyme. The appearance of the 7-amino-4 methylcoumarin product was recorded continuously with a Perkin Elmer 650-10S spectrofluorimeter, a SPEX Fluorolog 1680, or SLM 8000C fluorescence spectrometer with excitation at 370 nm and emission at 460 nm.
Typically, 5 μL of the substrate solution (50 mM stock in DMSO) was added to 1 mL of buffer. Varying concentrations of the inhibitor solution (10 μL of a DMSO […] solution) were added, followed by 10 μL of calpain in the assay buffer. After allowing the reaction mixture to incubate for 2-5 min, during which time a steady baseline level of fluorescence was measured, calcium was added in a 10-μL volume to initiate hydrolysis of the fluorogenic substrate, and the resulting increase in fluorescence was monitored continuously. When inhibitors were tested at very low concentrations, the enzyme concentration was reduced to maintain a minimum of a 10-fold excess of inhibitor over enzyme.

[1] = tested on: Wistar rats with MCA occlusion; assay: Stroke model, 2 h MCA occlusion, i.v. infusion after reperfusion, infarct volume at 7 days; type: in vivo, rat; settings: 2 h MCA occlusion; for % Hemisphere Infarct Volume (% ± SEM): day 7, control 37 ± 2.6
Experimental: Male Wistar rat weighing between 270-290 gm are fasted the night prior to surgery. Each rat was then anesthetized with 3.5% halothane, and spontaneously respired with 0.5% halothane in a 2:1 N2O:O2 mixture using a face mask. A normal range of blood gases and pH is maintained during ischemia and reperfusion with the face mask inhalation, as verified by samples taken from a femoral artery PE-50 catheter. Body temperature is maintained constant at 37° C. with a recirculating heating pad and K module with an intrarectal type T thermocouple. The PE-50 catheters are inserted into the femoral artery and vein following induction of anesthesia to obtain the blood gas, glucose and hemoglobin concentrations and to monitor blood pressure.
The right common carotid artery, external carotid artery and internal carotid artery are isolated using microsurgical techniques. A clamp is applied to the common carotid artery and a 4-0 nylon suture with a rounded tip is inserted into the external carotid artery through a small puncture. The clamp on the common carotid artery is removed. The suture is passed distally into the internal carotid artery until it blocks the middle cerebral artery. Two hours after the MCA occlusion, the animal is again anesthetized, and the nylon suture is removed from the internal carotid artery.
Infusion of the inhibitor or vehicle is done by intravenous infusion via the femoral vein.
Syringe pumps were filled under sterile conditions with either isotonic saline/1% DMSO solution as the control or with the concentration of CP-1 or CP-2 indicated in the examples, hereinbelow. The pumps delivered the solution at a rate of 15 μl/min for up to 4 hours.
After anesthesia had been induced in the rat, a catheter was inserted into the femoral vein and tunneled subcutaneously in the posterior neck region. Body temperature was maintained at a constant temperature of 37° C. during surgical procedures. The animals underwent 2 hours of MCA occlusion, and then reperfusion when the suture was withdrawn, and immediately thereafter, the drug was infused for four hours. The animals were killed after a 7-day reperfusion, and the brains were formalin fixed and sliced 6-μm thick into seven coronal sections A-G, and mounted on coated slides. After staining with hematoxylin and eosin, the stroke volume was measured using an image analysis program. The stroke area and the contralateral hemispheric area were calculated by tracing the areas on the computer screen, and the volumes were determined by multiplying the appropriate area by the section interval thickness. The stroke volume is expressed as the percentage of lesion size to the volume of contralateral hemisphere. Statistical analysis was performed using the independent t-test.
CP-1 dissolved in 1% DMSO and isotonic saline was given intravenously to Wistar rats (15 μl/min) at concentrations of 2 μM, 10μM, 50μM and 25μM for 4 hours immediately after reperfusion following two hours of MCA occlusion, in accordance with the procedure described hereinabove. Control animals underwent a similar protocol but they had injected therein 1% DMSO/Saline as the vehicle within four hours. All animals which survived 7 days were sacrificed and the stroke volume calculated. The results are tabulated hereinbelow:
The protocol described hereinabove was repeated with CP-2 used in lieu of CP-1, at doses of 10, 50, 250 and 500 μM.

Chain of Cathepsin L (P07711 114-333, species assumed): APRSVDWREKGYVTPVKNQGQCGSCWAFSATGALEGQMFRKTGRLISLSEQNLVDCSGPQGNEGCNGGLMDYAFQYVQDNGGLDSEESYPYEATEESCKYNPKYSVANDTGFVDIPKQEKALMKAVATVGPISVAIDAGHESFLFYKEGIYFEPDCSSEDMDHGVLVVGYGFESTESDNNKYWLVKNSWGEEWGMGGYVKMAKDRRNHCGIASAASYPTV

Compound	Cathepsin B k′2app (Cathepsin B)	Cathepsin L k′2app (Cathepsin L)	Calpain k′2app (Calpain)	further results
CC(C)CC(NC(=O)OCc1ccccc1)C(=O)NC(Cc1c[nH]c2ccccc12)C(=O)C=[N+]=[N-] (stereo not drawn) [CBZ-Leu-Trp-CHN2, benzyloxycarbonyl-Leu-Trp-CHN2]	<50 M^−1S^−1	12,000 M^−1S^−1	–	–
CSCCC(NC(=O)C(CC(C)C)NC(=O)OCc1ccccc1)C(=O)C=[N+]=[N-] (stereo not drawn) [CBZ-Leu-Met-CHN2, benzyloxycarbonyl-Leu-Met-CHN2] (Cbz-Leu-Met-CHN2; configuration not given here)	4,060 M^−1S^−1	212,000 M^−1S^−1	–	–
CC(C)CC(NC(=O)OCc1ccccc1)C(=O)NC(Cc1ccc(O)cc1)C(=O)C=[N+]=[N-] (stereo not drawn) [CBZ-Leu-Tyr-CHN2, benzyloxycarbonyl-Leu-Tyr-CHN2] (Cbz-Leu-Tyr-CHN2; configuration not given here)	<50 M^−1S^−1	1,500,000 M^−1S^−1	1,470 M^−1S^−1	–
[N-]=[N+]=CC(=O)[C@H](Cc1ccccc1)NC(=O)[C@H](Cc1ccccc1)NC(=O)OCc1ccccc1 [CBZ-Phe-Phe-CHN2, benzyloxycarbonyl-Phe-Phe-CHN2] (Cbz-Phe-Phe-CHN2)	350 M^−1S^−1	140,000 M^−1S^−1	–	–
CC(NC(=O)C(Cc1ccc(I)cc1)NC(=O)OCc1ccccc1)C(=O)C=[N+]=[N-] (stereo not drawn) [CBZ-Phe(I)-Ala-CHN2, benzyloxycarbonyl-Phe (I) -Ala-CHN2]	980 M^−1S^−1	130,000 M^−1S^−1	–	–
CC(OC(C)(C)C)C(NC(=O)C(Cc1ccccc1)NC(=O)OCc1ccccc1)C(=O)C=[N+]=[N-] (stereo not drawn) [CBZ-Phe-Thr(OtBu)-CHN2, benzyloxycarbonyl-Phe-Thr(O-t-Bu)-CHN2]	160 M^−1S^−1	60,000 M^−1S^−1	–	–
[N-]=[N+]=CC(=O)C(Cc1ccc([N+](=O)[O-])cc1)NC(=O)C(Cc1ccccc1)NC(=O)OCc1ccccc1 (stereo not drawn) [CBZ-Phe-Phe(pNO2)-CHN2, benzyloxycarbonyl-Phe-Phe (p-N02) -CHN2] (Cbz-Phe-[Phe(4-NO2)]-CHN2; configuration not given here)	50 M^−1S^−1	190,000 M^−1S^−1	–	–
CC(C)(C)Oc1ccc(CC(NC(=O)C(Cc2ccccc2)NC(=O)OCc2ccccc2)C(=O)C=[N+]=[N-])cc1 (stereo not drawn) [CP-2, benzyloxycarbonyl-Phe-Tyr(OtBu)-CHN2] (Cbz-Phe-Tyr(tBu)-CHN2; configuration not given here)	10 M^−1S^−1	200,000 M^−1S^−1	<10 M^−1S^−1	% Hemisphere Infarct Volume (% ± SEM) ([1]; 10 μM i.v. 15 μl/min for 4 h after reperfusion): 28 ± 4.6, p > 0.05%; % Hemisphere Infarct Volume (% ± SEM) ([1]; 50 μM i.v. 15 μl/min for 4 h after reperfusion): 35 ± 4.8, p > 0.05%; % Hemisphere Infarct Volume (% ± SEM) ([1]; 250 μM i.v. 15 μl/min for 4 h after reperfusion): 21 ± 4.7, p = 0.01%; % Hemisphere Infarct Volume (% ± SEM) ([1]; 500 μM i.v. 15 μl/min for 4 h after reperfusion): 22 ± 3.5, p = 0.004%; effectiveness in reducing stroke damage ([1]; doses 10, 50, 250 and 500 μM): High doses of CP-2 were effective, but not the lower doses
benzyloxycarbonyl-Phe-Ala-CHN2 [CBZ-Phe-Ala-CHN2]	1,200 M^−1S^−1	160,000 M^−1S^−1	<5 M^−1S^−1	–
[N-]=[N+]=CC(=O)C(CCCNC(N)=O)NC(=O)C(Cc1ccccc1)NC(=O)OCc1ccccc1 (stereo not drawn) [CBZ-Phe-Cit-CHN2, benzyloxycarbonyl-Phe-Cit-CHN2] (Cbz-Phe-[Cit]-CHN2; configuration not given here)	6,700 M^−1S^−1	1,800,000 M^−1S^−1	–	–
CC(C)C[C@H](NC(=O)OCc1ccccc1)C(=O)N[C@@H](CC(C)C)C(=O)N[C@@H](Cc1ccc(O)cc1)C(=O)C=[N+]=[N-] [CBZ-Leu-Leu-Tyr-CHN2, benzyloxycarbonyl -Leu-Leu-Tyr-CHN2] (Cbz-Leu-Leu-Tyr-CHN2)	1,300 M^−1S^−1	1,500,000 M^−1S^−1	230,000 M^−1S^−1	–
[N-]=[N+]=CC(=O)C(CSCc1ccccc1)NC(=O)C(Cc1ccccc1)NC(=O)OCc1ccccc1 (stereo not drawn) [CBZ-Phe-Cys(SBnz1)-CHN2, benzyloxycarbonyl-Phe-Cys-(SBz)-CHN2] (Cbz-Phe-Cys(Bn)-CHN2; configuration not given here)	30,000 M^−1S^−1	390,000 M^−1S^−1	–	–
